How the values were obtained:
[1] = system: male albino mice (NMRI), formalin-induced nociception; experiment: Formalin test on mice (second phase); assay type: in vivo, mouse
Description: The investigations to determine the antinociceptive action of the compounds according to the invention were carried out by the formalin test on male albino mice (NMRI, 25-35 g, Iffa Credo, Belgium).
In the formalin test the first (early) phase (0-15 minutes after the formalin injection) and the second (late) phase (15-60 minutes after the formalin injection) differ (D. Dubuisson et al., Pain, Vol. 4, pp. 161-174 (1977)). The early phase, being a direct reaction to the formalin injection, constitutes a model for acute pain, whereas the late phase is regarded as a model for persistent (chronic) pain (T. J. Coderre et al., Pain, Vol. 52, pp. 259-285 (1993)).
The compounds according to the invention were investigated in the second phase of the formalin test in order to obtain information on the effects of substances in chronic/inflammatory pain. By means of a single subcutaneous formalin injection (20 μl, 1% aqueous solution) into the dorsal side of the right-hand rear paw, a nociceptive reaction was induced in unconstrained experimental animals, manifested in a noticeable licking and biting of the affected paw.
The nociceptive behavior for the test period in the second (late) phase of the formalin test was continuously monitored by observing the animals. The pain reaction was quantified by totaling the time in seconds during which the animals continued to lick and bite the affected paw during the investigation period. After injecting substances that have an antinociceptive effect in the formalin test, the aforedescribed behavior pattern of the animals is reduced or possibly even cancelled.
Corresponding to the substance tests, in which the animals had been injected with the test substance before formalin, the control animals were injected with a vehicle, i.e. solvent (e.g. 0.9% NaCl solution) before the formalin injection. […]
Based on the quantification of the pain reaction, the effect of the substance in the formalin test was determined as the change in the control in percentage terms. […]

[2] = system: male Sprague-Dawley rats with L5/L6 spinal nerve ligatures; experiment: In vivo experiments according to Chung (spinal nerve ligation, tactile withdrawal threshold); parameters: species or system rat; conditions: further investigation
Description: In male Sprague-Dawley rats spinal nerve ligatures were applied according to Kim and Chung (1992) to the left L5/L6 spinal nerves. At the same time spinal catheters were implanted according to Pogatzki et al. ^6 (2000). 4 to 6 days after the operation the tactile threshold baseline (withdrawal thresholds) was measured on the ipsilateral and contra lateral rear paw by an electronic vonFrey anaesthesiometer (IITC Life Science, USA). […] After the test and baseline measurement, gabapentin and substances according to the invention were administered. The tactile withdrawal thresholds were measured 30 minutes after administration. The results are expressed as ED50 and % maximal possible effect (% MPE; % of the maximal possible effect) on the ipsilateral side, in which the baseline is taken as 0% and the withdrawal threshold of a control group is taken as 100% MPE.

gabapentin binding site = experiment: Binding assay: displacement of gabapentin from its binding site
Description: Gabapentin was used in a binding assay in order to check the binding and affinities of the selected compounds. The affinity of the compounds according to the invention was measured via the displacement of gabapentin from its binding site.

Question: N/C(=N\S(=O)(=O)c1ccc(Cl)cc1)NCc1ccccn1 [Example 21, N-{amino-[(pyridin-2-yl-methyl)-amino]-methylene}-4-chlorobenzenesulfonamide] was tested. Which ED50 ([1]; Mus musculus, second (late) phase of the formalin test, read-out: Formalin Test on Mice - ED50) did it give?
Answer: 97 mg/kg

Question: And the “inhibition of the formalin-induced nociception” value ([1]; result in words)?
Answer: exhibited an inhibition of the formalin-induced nociception

Question: And the ED50 ([2]; Rattus norvegicus, read-out:, table title: Analgesia testing in rats according to Chung)?
Answer: 13.3 mg/kg

Question: And the “effect compared with gabapentin” value ([2]; rats, Chung test, result in words)?
Answer: superior in their effect to gabapentin

Question: And the “effect in the Chung test” value ([2]; rats, result in words)?
Answer: show an effect

Question: What about the IC50 (gabapentin binding site; displacement of gabapentin from its binding site) of the same compound?
Answer: 779 nM

Question: And the Percent inhibition (gabapentin binding site; inhibition/displacement of gabapentin, concentration 10^−5 μM [sic])?
Answer: 75%
